What was measured:
Format in all cases: cell-based, human
[1] = tested on: cad-11 protein in endometrial stromal cells; test: Western blot of cad-11 protein in cultured endometrial stromal cells treated with gonadal steroids
Procedure: (§1) Endometrial tissue biopsies (n=6) were obtained from women of reproductive age during the mid-secretory phase of the menstrual cycle. All patients had normal menstrual cycles and had not received hormones for at least three months prior to the collection of tissue. The stage of the menstrual cycle was determined by the last menstrual period and confirmed by histological evaluation.
The endometrial stromal cells were separated from the glandular epithelium by enzymatic digestion and mechanical dissociation. The endometrial biopsy specimens were minced and subjected to 0.1% colagenase (type 1A. Sigma Chemical Co., St. Louis. MO) and 0.1% hyaluronidase (type I-S, Sigma Chemical Co.) digestion in a shaking water bath at 37° C. for 1 hour. The cell digest was then passed through a nylon sieve (38 m). The isolated glands were retained on the sieve and the eluate containing the stromal cells collected in a 50 ml tube. […] The purity of the cell cultures was determined by immunocytochemical staining for vimentin, cytokeratin, muscle actin, and […]. […]
(§2) The results are presented as the mean relative absorbance (+SE) for three independent experiments. Statistical differences between time points and treatments were assessed by the analysis of variance (ANOVA). […] Significant differences between the means were determined using the least significant test.

[2] = tested on: cad-11 mRNA in endometrial stromal cells; test: Northern blot of cad-11 mRNA in cultured endometrial stromal cells treated with gonadal steroids; settings: P4 1 mM, E2 30 nM
Procedure: as §1
The endometrial stromal cells were separated from the glandular epithelium by enzymatic digestion and mechanical dissociation. […] The purity of the cell cultures was determined by immunocytochemical staining for vimentin, cytokeratin, muscle actin, and […]. […]
The Northern blots were hybridized with radiolabelled cDNA probes specific for human cad-11 according to the methods of MacCalman et al. (1992) Developmental Dynamics 195:127-132. […] The absorbance values obtained for cad-11 mRNA transcripts were normalized relative to the 18S rRNA absorbance value.
as §2

cad-11 = test: Cad-11 antisense/sense oligonucleotide studies, second oligonucleotide pair; settings: no individual experiments specified
Procedure: Antisense oligonucleotide sequences (18 mers, 50% AT/GC) were selected from the full-length cad-11 cDNA sequence using the MacVector™ program. DNA sequences located near the 5′ end of the cad-11 cDNA were selected and compared to the human sequence databases of GenBank and EMBL bank. […] Sense oligonucleotides, OB-3 and OB-4, were prepared as controls. Phosphothiorate labelled oligonucleotides were prepared at the Biotechnology Lab. of The University of British Columbia. The same results were obtained using OB-1 and OB-3, as with OB-2 and OB-4.

Row | Compound | time in culture at which maximum cad-11 expression levels were detected [1] | cad-11 protein expression ([1]; P4, E2 30 nM, alone or together, increase seen at 2 days of culture) | time in culture at which maximum cad-11 mRNA levels were observed [2] | stromal cad-11 mRNA levels ([2]; alone or together, increase seen after 2 days of culture, studied 0-12 days) | results compared with the pair OB-1 (antisense) and OB-3 (sense) (cad-11)
1 | CC(=O)[C@H]1CC[C@H]2[C@@H]3CCC4=CC(=O)CC[C@]4(C)[C@H]3CC[C@]12C [P4, progesterone] | 12 days | increase | 12 days | significant increase | 
2 | OB-2: cad-11 antisense oligonucleotide, 18 mer: CAC GAA GAA CTG GTT CCA (SEQ ID NO:2) (antisense CACGAAGAACTGGTTCCA; listed as DNA, chemistry not given here; listed as Homo sapiens) |  |  |  |  | same results
3 | OB-4: sense oligonucleotide prepared as control: ACC TTG GTC AAG AAG CAC (SEQ ID NO:4) (sense ACCTTGGTCAAGAAGCAC; listed as DNA, chemistry not given here) [reference compound] |  |  |  |  | same results
